This assay concerns Schistosoma mansoni. Kind of assay: High throughput screening of compounds against Schistosoma mansoni motility. Also on record: dose or concentration left out as unconfirmed. The class given is functional.

As for `CN(CC(F)(F)F)C(=O)C1CSCN1C(=O)OC(C)(C)C` (stereo unspecified), the “Percent Effect” value is reported as -9.988%.

Take `Cc1ccccc1S(=O)(=O)NC(=O)CSc1ccc2c(c1)OCCO2`: the “Percent Effect” value is reported as -27.11%.

For `Cc1n[nH]c(C2CN(C(=O)CCc3ccsc3)CCO2)n1` (stereo unspecified), the “Percent Effect” value is recorded as -49.32%.

Turning to `CCc1cc(NC2CCN(S(C)(=O)=O)CC2)n2nc(C)c(C)c2n1`, the “Percent Effect” value is given as -49.44%.

On to `O=C(CSc1nc2c(cnn2CCO)c(=O)[nH]1)N1CCCCCC1`, for which the “Percent Effect” value is reported as -11.33%.

On to `CC(C)=CCN1C(=O)[C@H]2CC[C@@H]1CN(Cc1cccnc1N)C2`, for which the “Percent Effect” value is recorded as -5.593%.

Consider `COCC(NC(=O)c1ccc[nH]1)c1cccc(C(F)(F)F)c1` (stereo unspecified), for which the “Percent Effect” value is listed as -105.3%.

With `Cn1c(CNc2c(F)cccc2-n2cccn2)cc(=O)n(C)c1=O`, the “Percent Effect” value was -12.04%.

For `CN(CCN1CCCCCC1)C(=O)c1cc(CN2CCC(O)CC2)on1`, the “Percent Effect” value was -17.62%.

With `Cc1nc(C)n(CC2CN(CC(=O)Nc3cccnc3)CCO2)n1` (stereo unspecified), the “Percent Effect” value is listed as -4.464%.

As to `Cc1nccc(N2CCC(=O)N(Cc3ccc(F)cc3)C(C(C)C)C2)n1` (stereo unspecified), the “Percent Effect” value is given as -22.84%.

In the case of `O=C(CN(Cc1cccnc1)CC1CCCO1)Nc1ccc(F)cc1` (stereo unspecified), the “Percent Effect” value is recorded as -30.42%.

For `COc1ccc(CNC(=O)NC2CCC(O)CC2)c(C(F)(F)F)c1` (stereo unspecified), the “Percent Effect” value was -1.236%.

Turning to `O=C(CCc1ccccc1)Nc1ncccc1OC(F)F`, the “Percent Effect” value was -1.295%.

`CCC(CC)c1cc(C(=O)N2CCCC(n3cncn3)C2)on1` (stereo unspecified): the “Percent Effect” value is given as 1.073%.

For `O=C1NCCCCC1Sc1nnc(C2CC2)n1C1CC1` (stereo unspecified), the “Percent Effect” value was -44.06%.

On to `CC(C)S(=O)(=O)NCC1CCCN(C(=O)c2ccc3c(c2)CCC3)C1` (stereo unspecified), for which the “Percent Effect” value is reported as -22.55%.

As to `Cc1nn(C)c(C)c1NC(=O)CN1CCCC1c1noc(C2CC2)n1` (stereo unspecified), the “Percent Effect” value is recorded as -50.94%.

Turning to `CN(CCC(F)(F)F)C(=O)C1CCCN1C(=O)OC(C)(C)C` (stereo unspecified), the “Percent Effect” value is -26.39%.

In the case of `COc1ccccc1OCc1cc(C(=O)N2CC=CC2C(C)C)n[nH]1` (stereo unspecified), the “Percent Effect” value was -26.69%.

Turning to `CN1CCCN(C(=O)c2ccc3c(c2)nc(N2CCOCC2)n3C)CC1`, the “Percent Effect” value is -26.36%.

As for `Cc1cn(-c2ccccc2)nc1NS(=O)(=O)c1cccc(C(=O)O)c1`, the “Percent Effect” value is given as -30.44%.

For the compound `O=C1CCSCC(C(=O)N2CCCC2)N1` (stereo unspecified), the “Percent Effect” value is listed as -27.13%.

Turning to `O=S(=O)(c1ccccc1)N1CCN(CCn2ccnc2)CC1`, the “Percent Effect” value is recorded as -51.46%.

As to `CC(OCC(F)(F)F)C(=O)N1CCCCC1` (stereo unspecified), the “Percent Effect” value is -17.04%.

For the compound `Cc1cnc2n(c1=O)CC(C(=O)Nc1ccccc1Cl)CS2` (stereo unspecified), the “Percent Effect” value was -94.31%.

As for `CC[C@@]1(O)CCN(C(=O)c2ccsc2)C[C@H]1O`, the “Percent Effect” value was -27.08%.

Turning to `COCCNS(=O)(=O)c1cccc2c1CN(C(=O)c1ccccc1)CC2`, the “Percent Effect” value is listed as 10.23%.

On to `CCC(=O)N1CCc2[nH]cnc2C12CCN(C(=O)CCS(C)(=O)=O)CC2`, for which the “Percent Effect” value was -12.74%.

Consider `O=C(CCc1cscn1)NS(=O)(=O)c1ccc2ccccc2c1`, for which the “Percent Effect” value worked out at 22.96%.

Regarding `CCN(CCn1cccn1)Cc1nc(-c2cccs2)oc1C`, the “Percent Effect” value is -16.9%.

`COc1ccc(CNCCc2cc(F)cc3c2OCOC3)cc1O`: the “Percent Effect” value was -21.14%.

In the case of `CC(C)c1cnc(CNc2c(F)cccc2-n2cccn2)o1`, the “Percent Effect” value was 20.62%.

With `Cc1ccc(S(=O)(=O)NC2CC2)cc1C`, the “Percent Effect” value is given as -24.32%.

Take `COc1cccc2c1OCC(C(=O)N(C)CCCc1cnn(C)c1)C2` (stereo unspecified): the “Percent Effect” value is -37.39%.

As for `C[C@@H]1CN(C2(C(=O)N3CCCCCC3)Cc3ccccc3C2)C[C@H](C)O1`, the “Percent Effect” value was 12.64%.

For the compound `O=C(c1ccc(Br)s1)N1CCN(Cc2ccc(OC(F)(F)F)cc2)CC1`, the “Percent Effect” value was determined as 31.43%.

As to `Cl.O=C(Cc1ccc(F)cc1)N1CCN(CC(O)C2CC2)CC1` (stereo unspecified), the “Percent Effect” value is -44.17%.

With `CCS(=O)(=O)N1CCC(c2nnc(Cn3cccn3)n2C2CC2)CC1`, the “Percent Effect” value was -7.484%.

`CS(=O)(=O)NCCNC(=O)C1(c2cccc(Cl)c2)CC1`: the “Percent Effect” value amounted to 21.58%.

On to `COc1ccccc1[C@@H]1CN(C(=O)c2csc(C)n2)C[C@H]1C(=O)O`, for which the “Percent Effect” value is 18.41%.

Turning to `COC(=O)c1sccc1NC(=O)C1CCCN1C(=O)c1ccco1` (stereo unspecified), the “Percent Effect” value was 1.887%.

Consider `CC(=O)NC(C)CC(=O)NCc1cccnc1Oc1ccccc1C` (stereo unspecified), for which the “Percent Effect” value was 11.59%.

With `COC(=O)c1ccc2ccn(CC3CCNC3)c(=O)c2c1` (stereo unspecified), the “Percent Effect” value is on record as -40.15%.

For `O=C(CCCc1cn[nH]c1)N1C[C@@H](CN2CCOCC2)[C@@H](CO)C1`, the “Percent Effect” value was -60.63%.

Take `CC(C)C(=O)N1CCN(C(=O)c2cc(C(C)C)on2)[C@H]2CS(=O)(=O)C[C@H]21`: the “Percent Effect” value is given as -39.14%.

Take `CCOCCN1CCN(Cc2nc(C3CC3)no2)CC1CC` (stereo unspecified): the “Percent Effect” value is -35.07%.

For `O=C(CCn1cnnc1)N1CCCC(c2ncc[nH]2)C1` (stereo unspecified), the “Percent Effect” value is listed as -28.96%.

With `CC(C)S(=O)(=O)NCC1CCCN(C(=O)c2ccc3c(c2)OCCO3)C1` (stereo unspecified), the “Percent Effect” value is given as -47.11%.

In the case of `COC(=O)c1cc(OCC2CCC2)cc(C(=O)N[C@@H]2CNCC[C@H]2O)c1`, the “Percent Effect” value is -27.72%.

For `CCN1CC2(CCC1=O)CCN(C(=O)c1ccc(Cl)cc1O)CC2`, the “Percent Effect” value is -8.652%.

With `COC(=O)c1cc(OCC2CCC2)cc(C(=O)N[C@H]2CC[C@H](O)CC2)c1`, the “Percent Effect” value is given as -76.62%.

In the case of `Cn1c(CN2CCN(CC3CC3)CC2)nnc1C1CCC1`, the “Percent Effect” value is recorded as -23.98%.

Regarding `Cc1nc[nH]c1CN1C[C@@H]2CC[C@H](C1)N(C(=O)CCNS(C)(=O)=O)C2`, the “Percent Effect” value turned out to be 1.774%.

For the compound `CCc1n[nH]c(C2CN(CC(=O)NCCc3ccsc3)CCO2)n1` (stereo unspecified), the “Percent Effect” value is reported as -30.25%.

Consider `COCCCC1(CO)CCCN(CCc2ccccc2)C1` (stereo unspecified), for which the “Percent Effect” value is -47.32%.

For `Cc1cc(C(=O)N2CCCC2c2nnc3n2CCCCC3)no1` (stereo unspecified), the “Percent Effect” value was -2.272%.

`Cc1cnc2n(c1=O)CC(C(=O)NC1CC1)CS2` (stereo unspecified): the “Percent Effect” value was -61.59%.

With `CC(=O)Nc1cccc(C(=O)Nc2cnc3n2CCCC3)c1`, the “Percent Effect” value was -24.57%.

As for `CN(C)S(=O)(=O)N1C[C@@H]2CC[C@H](C1)N(Cc1ccc3nsnc3c1)C2`, the “Percent Effect” value is recorded as -23.4%.

Turning to `O=C(NCC1(CO)CC1)c1cccc2ccccc12`, the “Percent Effect” value is given as -62.45%.

Take `Cc1ccnc(OCC(=O)N2CCC(C(N)=O)CC2)n1`: the “Percent Effect” value is -71.31%.

Take `COC(=O)c1sccc1S(=O)(=O)N1CCC(Oc2cccnn2)CC1`: the “Percent Effect” value was -55.3%.

Take `CC1CCCN(CCNC(=O)c2cncnc2C(C)C)C1` (stereo unspecified): the “Percent Effect” value is -12.57%.

Consider `Cn1c(C(F)(F)F)nn(CCNC(=O)c2cnc3ccccc3n2)c1=O`, for which the “Percent Effect” value is -7.141%.

Consider `CCOCCC(=O)N1CCCC(c2ncc[nH]2)C1` (stereo unspecified), for which the “Percent Effect” value is reported as -61.02%.

In the case of `Cn1nnc2cc(C(=O)N3CCCC3Cc3ccccc3)ccc21` (stereo unspecified), the “Percent Effect” value is given as -37.55%.

On to `Cc1noc(C)c1CCC(=O)N1CCN(CCn2cccn2)CC1`, for which the “Percent Effect” value was -23.72%.

Regarding `CC(CN1CCOCC1)NCc1nncn1C1CCCCC1` (stereo unspecified), the “Percent Effect” value came out at 0.8698%.

Regarding `Fc1ccccc1-c1noc2c1CN(CC1CC1)CC2`, the “Percent Effect” value was -95.25%.

In the case of `CCC1CN(C(=O)c2ccc(=O)[nH]c2)CCC(=O)N1Cc1ccccc1` (stereo unspecified), the “Percent Effect” value is -27.12%.

Take `O=C(c1cc(Cl)c2c(c1)OCO2)N1CCN(c2nccs2)CC1`: the “Percent Effect” value is recorded as -51.67%.

`COc1ccc(OC)c(CNCCc2cc(F)cc3c2OCOC3)c1`: the “Percent Effect” value came out at 89.81%.

`Cc1cnc(C(=O)N(CCN(C)C)Cc2ccc(Cl)cc2)cn1`: the “Percent Effect” value was determined as 17.37%.

Regarding `CC(C)c1n[nH]c(C2CN(C(=O)CCCn3cccn3)CCO2)n1` (stereo unspecified), the “Percent Effect” value amounted to 21.88%.

As to `CC(CN1CCOCC1)NCC1CCN(c2cnn(C)c(=O)c2)CC1` (stereo unspecified), the “Percent Effect” value came out at 33.93%.

For the compound `CN1CCN(CCCNC(=O)c2cc(Cl)c3c(c2)OCO3)CC1`, the “Percent Effect” value is given as -22.9%.

`O=C(CSc1ncccn1)N1C[C@H]2CC[C@@H]1CN(Cc1ccncc1)C2`: the “Percent Effect” value is -45.84%.

Take `Cc1nsc(N2CCCN(c3nc(C4CC4)ns3)CC2)n1`: the “Percent Effect” value was -32.57%.

Turning to `CC(C)N1CCC(N2CCN(C3CCC3)CC2CCO)CC1` (stereo unspecified), the “Percent Effect” value was 7.869%.

With `Cc1nc[nH]c1CN1C[C@@H]2CC[C@H](C1)N(C(=O)CCc1cnn(C)c1)C2`, the “Percent Effect” value is recorded as -10.53%.

For `Cc1csc(N2CCN(CCc3ccccn3)CC2C)n1` (stereo unspecified), the “Percent Effect” value is given as -16.94%.

As to `Cn1c(C(F)(F)F)nn(CCNC(=O)CSCc2ccccc2)c1=O`, the “Percent Effect” value was -2.069%.

As for `Cc1nc(CN2CCc3cncnc3C2)oc1C`, the “Percent Effect” value is on record as -26.27%.

Regarding `Cc1noc(C)c1CCC(=O)N1CCN(CCn2cncn2)CC1`, the “Percent Effect” value is -8.408%.

`Cc1ccc(-c2cn[nH]c2C2CCCN(c3nccc(N)n3)C2)cc1` (stereo unspecified): the “Percent Effect” value is recorded as 94.46%.

Consider `Cc1noc(-c2ccc(N3CCCC(C(=O)N4CCSCC4)C3)nc2)n1` (stereo unspecified), for which the “Percent Effect” value is given as 26.74%.

Take `Cl.Cl.OC(CN1CCN(Cc2ccc(F)cc2)CC1)C1CC1` (stereo unspecified): the “Percent Effect” value was -83.95%.

For the compound `O=c1nc(SCc2ccncc2)c2c(n1CCO)CCCC2`, the “Percent Effect” value is reported as -51.22%.

`CCCC(C)CN1CCC(n2cc(CCCO)nn2)CC1` (stereo unspecified): the “Percent Effect” value was -31.48%.

For the compound `COc1cccc(OCc2cc(C(=O)NC[C@H]3CCCN3)n[nH]2)c1`, the “Percent Effect” value is recorded as -4.692%.

With `CC(C)NC(=O)N1CCC(n2ccc(C(F)(F)F)n2)CC1`, the “Percent Effect” value was -11.19%.

Consider `O=C(Nc1ccc(F)cc1)N1C[C@H]2CC[C@@H]1CN(Cc1cccnc1)C2`, for which the “Percent Effect” value is recorded as -3.001%.

For the compound `Cc1nc(C)n(CC2CCCN2CC(=O)NCc2ccco2)n1` (stereo unspecified), the “Percent Effect” value is given as -29.3%.

With `COc1ccc(NC(C)C(=O)NCCc2cccs2)cc1F` (stereo unspecified), the “Percent Effect” value was -15.23%.

Turning to `O=C(Nc1ccnc(OC2CCOC2)c1)C1CCC1` (stereo unspecified), the “Percent Effect” value is listed as -37.1%.

Values taken from ChEMBL document CHEMBL3988442, “University of Dundee, Small-Polar-MMV Screening Library” (2021).
